According to patent US20240208992A1, “MACROCYCLES AS CFTR MODULATORS” (Idorsia Pharmaceuticals Ltd, priority 2021, published 2024):

Target: human F508del-CFTR (Homo sapiens, UniProt P13569, DEL508-508)
Assay: F508del-CFTR cell surface expression (corrector activity), DiscoveRx ß-galactosidase complementation chemiluminescence assay in recombinant U2OS cell line;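 further: U2OS cells co-expressing ProLink-tagged F508del-CFTR and a membrane-anchored enzyme acceptor, where more surface CFTR restores β-galactosidase activity measured by chemiluminescence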
Conditions: for EC50: EC50, F508del-CFTR cell surface expression; for Emax: U2OS
[1] = U2OS cells, 16h compound incubation, geomean values
[2] = in relation to Emax of corrector lumacaftor (=100%), arithmetic mean values
[3] = U2OS cell line, 16h compound incubation, geomean values
[4] = in relation to the Emax of the corrector lumacaftor (=100%), U2OS cell line, 16h compound incubation, arithmetic mean values

Chain of human F508del-CFTR (P13569 with tags, fused parts or gaps DEL508-508): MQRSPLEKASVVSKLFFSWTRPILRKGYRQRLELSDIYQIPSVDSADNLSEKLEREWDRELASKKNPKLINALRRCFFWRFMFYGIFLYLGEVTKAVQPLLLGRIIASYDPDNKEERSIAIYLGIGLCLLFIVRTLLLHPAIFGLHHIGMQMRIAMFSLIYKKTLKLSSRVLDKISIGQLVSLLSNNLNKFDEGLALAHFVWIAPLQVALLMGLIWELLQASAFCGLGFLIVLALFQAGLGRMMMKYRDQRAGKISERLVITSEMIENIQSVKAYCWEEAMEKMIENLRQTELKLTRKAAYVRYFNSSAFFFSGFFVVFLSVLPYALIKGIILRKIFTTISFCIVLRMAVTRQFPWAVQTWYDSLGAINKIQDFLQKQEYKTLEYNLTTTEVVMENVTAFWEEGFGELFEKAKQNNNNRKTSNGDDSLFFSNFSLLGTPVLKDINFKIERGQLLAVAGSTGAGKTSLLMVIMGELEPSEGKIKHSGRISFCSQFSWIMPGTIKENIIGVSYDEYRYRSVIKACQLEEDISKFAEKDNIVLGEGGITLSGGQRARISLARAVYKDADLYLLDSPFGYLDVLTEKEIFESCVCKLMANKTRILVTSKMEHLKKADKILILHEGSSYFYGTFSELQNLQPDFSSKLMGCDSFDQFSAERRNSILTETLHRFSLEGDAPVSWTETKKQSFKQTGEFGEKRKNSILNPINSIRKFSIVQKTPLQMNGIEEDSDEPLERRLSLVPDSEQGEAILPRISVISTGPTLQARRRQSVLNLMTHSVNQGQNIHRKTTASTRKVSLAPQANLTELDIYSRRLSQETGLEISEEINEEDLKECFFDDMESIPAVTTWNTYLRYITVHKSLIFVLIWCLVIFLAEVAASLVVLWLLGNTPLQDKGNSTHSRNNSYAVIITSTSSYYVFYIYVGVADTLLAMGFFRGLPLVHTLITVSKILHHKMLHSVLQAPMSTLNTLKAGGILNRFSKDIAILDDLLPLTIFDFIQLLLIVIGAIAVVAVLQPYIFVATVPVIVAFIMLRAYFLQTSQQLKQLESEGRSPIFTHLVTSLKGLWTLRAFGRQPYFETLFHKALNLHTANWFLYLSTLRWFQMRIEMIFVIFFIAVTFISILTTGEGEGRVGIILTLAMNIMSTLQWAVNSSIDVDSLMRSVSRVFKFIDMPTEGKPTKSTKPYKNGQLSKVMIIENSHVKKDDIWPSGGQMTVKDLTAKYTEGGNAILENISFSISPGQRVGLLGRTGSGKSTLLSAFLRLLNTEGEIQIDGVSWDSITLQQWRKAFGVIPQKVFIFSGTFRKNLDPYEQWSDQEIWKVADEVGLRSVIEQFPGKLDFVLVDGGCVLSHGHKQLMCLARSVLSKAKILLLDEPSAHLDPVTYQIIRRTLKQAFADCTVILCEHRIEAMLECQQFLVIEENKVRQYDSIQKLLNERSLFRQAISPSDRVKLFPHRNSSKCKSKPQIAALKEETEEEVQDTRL

| EC50 [1] [nM] | Emax [2] [%] | Structure (SMILES) | EC50 [3] [nM] | Emax [4] [%] | other results |
| --- | --- | --- | --- | --- | --- |
| 153 | 301 | Cc1cc(CCNC(=O)[C@@H]2CC(=O)N(C)[C@@H](CC(C)C)C(=O)N3CCN(S(=O)(=O)c4cccc(OC(F)(F)F)c4)C[C@@H]3C(=O)N[C@H](Cc3ccccc3)COc3cnc4ccccc4c3C(=O)N2)on1 [Example 749, (9S,13S,19aR,22R)-22-benzyl-13-isobutyl-12-methyl-N-(2-(3-methylisoxazol-5-yl)ethyl)-7,11,14,20-tetraoxo-18-((3-(trifluoromethoxy)phenyl)sulfonyl)-7,8,9,10,11,12,13,14,17,18,19,19a,20,21,22,23-hexadecahydro-16H-pyrazino[2′,1′:6,7][1]oxa[4,7,10,14]tetraazacycloheptadecino[17,16-c]quinoline-9-carboxamide] |  |  |  |
| 332 | 140 | [2H]C1([2H])Oc2ccc3c(c2O1)C(=O)N[C@H](C(=O)NCCc1ccc(-n2nccn2)cc1)CC(=O)N(C)[C@@H](CC(C)C)C(=O)N1CCCC[C@@H]1C(=O)N[C@H](Cc1ccccc1)CO3 [Example 653, (8S,12S,18aR,21R)-N-(4-(2H-1,2,3-triazol-2-yl)phenethyl)-21-benzyl-12-isobutyl-11-methyl-6,10,13,19-tetraoxo-6,7,8,9,10,11,12,13,16,17,18,18a,19,20,21,22-hexadecahydro-15H-[1,3]dioxolo[4′,5′:5,6]benzo[1,2-p]pyrido[2,1-f][1]oxa[4,7,10,14]tetraazacycloheptadecine-4,4-d2-8-carboxamide] |  |  |  |
| 201 | 276 | Cc1cc(CCNC(=O)[C@@H]2CC(=O)N(C)[C@@H](CC(C)C)C(=O)N3CCCC[C@@H]3C(=O)N[C@H](Cc3ccccc3)COc3cnc4ccc(F)cc4c3C(=O)N2)on1 [Example 480, (9S,13S,19aR,22R)-22-benzyl-5-fluoro-13-isobutyl-12-methyl-N-(2-(3-methylisoxazol-5-yl)ethyl)-7,11,14,20-tetraoxo-7,8,9,10,11,12,13,14,17,18,19,19a,20,21,22,23-hexadecahydro-16H-pyrido[2′,11:6,7][1]oxa[4,7,10,14]tetraazacycloheptadecino[17,16-c]quinoline-9-carboxamide] |  |  |  |
| 357 | 327 | COc1nc(C)cc2c1C(=O)N[C@H](C(=O)NCCc1nc(C3CC3)no1)CC(=O)N(C)[C@@H](CC(C)C)C(=O)N1CCCC[C@@H]1C(=O)N[C@H](Cc1ccccc1)CO2 [Example 656, (7S,11S,17aR,20R)-20-benzyl-N-(2-(3-cyclopropyl-1,2,4-oxadiazol-5-yl)ethyl)-11-isobutyl-4-methoxy-2,10-dimethyl-5,9,12,18-tetraoxo-5,6,7,8,9,10,11,12,15,16,17,17a,18,19,20,21-hexadecahydro-14H-dipyrido[2,1-f:3′,4′-p][1]oxa[4,7,10,14]tetraazacycloheptadecine-7-carboxamide] |  |  |  |

Second part, the compound before the results:

| Structure (SMILES) | EC50 [1] [nM] | Emax [2] [%] | EC50 [3] [nM] | Emax [4] [%] | other results |
| --- | --- | --- | --- | --- | --- |
| COc1cccc(CCNC(=O)[C@@H]2CC(=O)N(C)[C@@H](CC(C)C)C(=O)N3CCN(C)C[C@@H]3C(=O)N[C@H](Cc3ccccc3)COc3cnc4ccccc4c3C(=O)N2)c1 [Example 459, (9S,13S,19aR,22R)-22-benzyl-13-isobutyl-N-(3-methoxyphenethyl)-12,18-dimethyl-7,11,14,20-tetraoxo-7,8,9,10,11,12,13,14,17,18,19,19a,20,21,22,23-hexadecahydro-16H-pyrazino[2′,11:6,7][1]oxa[4,7,10,14]tetraazacycloheptadecino[17,16-c]quinoline-9-carboxamide] | 726 | 390 |  |  |  |
| COc1cccc2c1C(=O)N[C@H](C(=O)NCCc1ccc3c(c1)OCO3)CC(=O)N(C)[C@@H](C)C(=O)N(CCC1CCCCC1)CC(=O)N[C@H](Cc1ccccc1)CO2 [Example 263, (3R,9S,13S)-N-(2-(benzo[d][1,3]dioxol-5-yl)ethyl)-3-benzyl-7-(2-cyclohexylethyl)-16-methoxy-9,10-dimethyl-5,8,11,15-tetraoxo-2,3,4,5,6,7,8,9,10,11,12,13,14,15-tetradecahydrobenzo[p][1]oxa[4,7,10,14]tetraazacycloheptadecine-13-carboxamide] |  |  | 448 | 140 |  |
| CC(C)C[C@H]1C(=O)N(C)CC(=O)N[C@H](Cc2ccccc2)COc2cc3ccccc3cc2C(=O)N[C@H](C(=O)NCCc2ccc3c(c2)OCO3)CC(=O)N1C [Example 236, (3R,9S,13S)-N-(2-(benzo[d][1,3]dioxol-5-yl)ethyl)-3-benzyl-9-isobutyl-7,10-dimethyl-5,8,11,15-tetraoxo-2,3,4,5,6,7,8,9,10,11,12,13,14,15-tetradecahydronaphtho[2,3-p][1]oxa[4,7,10,14]tetraazacycloheptadecine-13-carboxamide] |  |  | 435 | 126 |  |
| COc1cccc(CCNC(=O)[C@@H]2CC(=O)N(C)[C@@H](CC(C)C)C(=O)N(C)[C@H](C)C(=O)N[C@H](Cc3ccccc3)COc3cnc4ccccc4c3C(=O)N2)c1 [Example 680, (3S,7S,10R,13R)-13-benzyl-7-isobutyl-N-(3-methoxyphenethyl)-6,9,10-trimethyl-1,5,8,11-tetraoxo-1,2,3,4,5,6,7,8,9,10,11,12,13,14-tetradecahydro-[1]oxa[4,7,10,14]tetraazacycloheptadecino[17,16-c]quinoline-3-carboxamide] | 448 | 340 |  |  |  |
| CC(C)C[C@H]1C(=O)N2CCOC[C@@H]2C(=O)N[C@H](Cc2ccccc2)COc2cnc3ccccc3c2C(=O)N[C@H](C(=O)NCCc2ccc3c(c2)OCC3)CC(=O)N1C [Example 54, (9S,13S,19aR,22R)-22-benzyl-N-(2-(2,3-dihydrobenzofuran-6-yl)ethyl)-13-isobutyl-12-methyl-7,11,14,20-tetraoxo-7,8,9,10,11,12,13,14,16,17,19,19a,20,21,22,23-hexadecahydro-[1,4]oxazino[3′,4′:6,7][1]oxa[4,7,10,14]tetraazacycloheptadecino[17,16-c]quinoline-9-carboxamide] |  |  | 558 | 373 |  |
| COc1cccc(CCNC(=O)[C@@H]2CC(=O)N(C)[C@@H](CC(C)C)C(=O)N3CCN(CC(C)C)C[C@H]3C(=O)N[C@H](Cc3ccccc3)COc3cnc4ccccc4c3C(=O)N2)c1 [Example 373, (9S,13S,19aS,22R)-22-benzyl-13,18-diisobutyl-N-(3-methoxyphenethyl)-12-methyl-7,11,14,20-tetraoxo-7,8,9,10,11,12,13,14,17,18,19,19a,20,21,22,23-hexadecahydro-16H-pyrazino[2′,11:6,7][1]oxa[4,7,10,14]tetraazacycloheptadecino[17,16-c]quinoline-9-carboxamide] |  |  | 200 | 149 |  |
| COc1cccc(CCNC(=O)[C@@H]2CC(=O)N(C)[C@@H](CC(C)C)C(=O)N(C)CC(=O)N[C@H](Cc3ccccc3)COc3cc4c(cc3C(=O)N2)OCO4)c1OC (racemic) [Example 151, (7R,13S,17RS)-7-benzyl-N-(2,3-dimethoxyphenethyl)-13-isobutyl-11,14-dimethyl-9,12,15,19-tetraoxo-6,7,8,9,10,11,12,13,14,15,16,17,18,19-tetradecahydro-[1,3]dioxolo[4′,5′:4,5]benzo[1,2-p][1]oxa[4,7,10,14]tetraazacycloheptadecine-17-carboxamide] |  |  |  | 106 |  |
| COc1cc(CCNC(=O)[C@@H]2CC(=O)N(C)[C@@H](CC(C)C)C(=O)N(CCC3CCCCC3)CC(=O)N[C@H](Cc3ccccc3)COc3cccc(OC)c3C(=O)N2)ccc1N [Example 218, (3R,9S,13S)-N-(4-amino-3-methoxyphenethyl)-3-benzyl-7-(2-cyclohexylethyl)-9-isobutyl-16-methoxy-10-methyl-5,8,11,15-tetraoxo-2,3,4,5,6,7,8,9,10,11,12,13,14,15-tetradecahydrobenzo[p][1]oxa[4,7,10,14]tetraazacycloheptadecine-13-carboxamide] |  |  | 353 | 143 |  |
| COc1nc(C)cc2c1C(=O)N[C@H](C(=O)NCCn1ncc(C#N)n1)CC(=O)N(C)[C@@H](CC(C)C)C(=O)N1CCCC[C@@H]1C(=O)N[C@H](Cc1ccccc1)CO2 [Example 836, (7S,11S,17aR,20R)-20-benzyl-N-(2-(4-cyano-2H-1,2,3-triazol-2-yl)ethyl)-11-isobutyl-4-methoxy-2,10-dimethyl-5,9,12,18-tetraoxo-5,6,7,8,9,10,11,12,15,16,17,17a,18,19,20,21-hexadecahydro-14H-dipyrido[2,1-f:3′,4′-p][1]oxa[4,7,10,14]tetraazacycloheptadecine-7-carboxamide] |  |  |  |  | EC50 (U2OS cells, 16h compound incubation, geomean of several measurements): 967 nM; Emax (in relation to the Emax of the corrector lumacaftor (=100%), U2OS cells, 16h compound incubation, arithmetic mean): 257% |
| COc1cccc(CCNC(=O)[C@@H]2CC(=O)N(C)[C@@H](CC(C)C)C(=O)N3CCN(S(C)(=O)=O)C[C@@H]3C(=O)N[C@H](Cc3ccccc3)COc3ccc4ccccc4c3C(=O)N2)c1 [Example 731, (4aR,7R,18S,22S)-7-benzyl-22-isobutyl-N-(3-methoxyphenethyl)-21-methyl-3-(methylsulfonyl)-5,16,20,23-tetraoxo-2,3,4,4a,5,6,7,8,16,17,18,19,20,21,22,23-hexadecahydro-1H-naphtho[1,2-p]pyrazino[2,1-f][1]oxa[4,7,10,14]tetraazacycloheptadecine-18-carboxamide] | 381 | 248 |  |  |  |
| COc1ccc(C2(CNC(=O)[C@@H]3CC(=O)N(C)[C@@H](CC(C)C)C(=O)N(C)C4(CC4)C(=O)N[C@H](Cc4ccccc4)COc4cnc5ccc(F)cc5c4C(=O)N3)CC2)cc1OC [Example 166, (3′S,7′S,13′R)-13′-benzyl-N-((1-(3,4-dimethoxyphenyl)cyclopropyl)methyl)-20′-fluoro-7′-isobutyl-6′,9′-dimethyl-1′,5′,8′,11′-tetraoxo-2′,3′,4′,5′,6′,7′,8′,9′,11′,12′,13′,14′-dodecahydro-1′H-spiro[cyclopropane-1,10′-[1]oxa[4,7,10,14]tetraazacycloheptadecino[17,16-c]quinoline]-3′-carboxamide] |  |  | 624 | 111 |  |
